Measured values as given in ChEMBL document CHEMBL1128822, “Synthesis and biological evaluation of 2,3-diarylthiophenes as selective Cox-2 and Cox-1 inhibitors” (Bioorg Med Chem Lett, 1995).

Legend:
[1] = biological target: Prostaglandin G/H synthase 1 (Homo sapiens, UniProt P23219); assay: Inhibitory activity against human COX-1 expressed in baculovirus infected Sf9 cells
[2] = biological target: T1, Prostaglandin G/H synthase 2 (Homo sapiens, UniProt P35354); assay: Inhibitory activity against human COX-2 expressed in baculovirus infected Sf9 cells; format: cell-based
T1 sequence (P35354 whole entry): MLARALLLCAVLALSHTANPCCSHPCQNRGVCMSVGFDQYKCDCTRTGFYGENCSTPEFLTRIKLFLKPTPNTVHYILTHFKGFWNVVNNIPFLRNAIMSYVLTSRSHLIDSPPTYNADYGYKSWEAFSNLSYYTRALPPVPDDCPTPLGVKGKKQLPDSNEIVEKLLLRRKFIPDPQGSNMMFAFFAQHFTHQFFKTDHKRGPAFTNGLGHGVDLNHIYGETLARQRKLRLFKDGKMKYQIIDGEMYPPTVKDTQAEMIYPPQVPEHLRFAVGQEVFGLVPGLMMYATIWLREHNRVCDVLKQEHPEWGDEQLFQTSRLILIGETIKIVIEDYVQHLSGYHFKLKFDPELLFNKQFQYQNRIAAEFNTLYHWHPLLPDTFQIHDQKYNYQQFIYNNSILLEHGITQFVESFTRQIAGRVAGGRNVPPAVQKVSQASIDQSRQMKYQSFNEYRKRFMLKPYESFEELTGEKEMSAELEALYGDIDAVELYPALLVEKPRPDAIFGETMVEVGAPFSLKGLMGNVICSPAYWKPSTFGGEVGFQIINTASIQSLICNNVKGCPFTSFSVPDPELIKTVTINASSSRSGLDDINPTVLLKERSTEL

Prostaglandin G/H synthase 1, sequence (P23219 whole entry): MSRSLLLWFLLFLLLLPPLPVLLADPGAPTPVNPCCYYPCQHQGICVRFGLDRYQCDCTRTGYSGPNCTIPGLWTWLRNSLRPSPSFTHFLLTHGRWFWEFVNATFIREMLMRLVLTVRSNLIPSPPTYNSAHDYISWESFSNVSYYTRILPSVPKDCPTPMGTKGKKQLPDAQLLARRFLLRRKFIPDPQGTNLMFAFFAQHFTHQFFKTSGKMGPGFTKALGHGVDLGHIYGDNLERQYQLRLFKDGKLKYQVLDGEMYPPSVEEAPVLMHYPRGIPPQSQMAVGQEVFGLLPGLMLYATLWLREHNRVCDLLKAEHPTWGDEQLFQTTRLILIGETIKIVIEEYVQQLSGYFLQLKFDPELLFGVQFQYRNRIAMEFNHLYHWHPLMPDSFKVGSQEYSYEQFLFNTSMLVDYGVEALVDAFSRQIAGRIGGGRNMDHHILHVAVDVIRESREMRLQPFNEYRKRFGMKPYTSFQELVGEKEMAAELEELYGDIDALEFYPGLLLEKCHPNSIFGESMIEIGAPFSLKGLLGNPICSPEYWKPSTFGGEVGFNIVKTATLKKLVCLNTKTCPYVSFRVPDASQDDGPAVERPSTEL

Row | Compound | IC50 [1] [µM] | IC50 [2] [µM]
1 | COC(=O)c1cc(-c2ccc(S(N)(=O)=O)cc2)c(-c2ccc(F)cc2)s1 | 1 | 0.07
2 | CCS(=O)(=O)c1ccc(-c2ccsc2-c2ccc(F)cc2)cc1 | > 50 | > 30
3 | CNS(=O)(=O)c1ccc(-c2ccsc2-c2ccc(F)cc2)cc1 | > 50 | 7.2
4 | CC(C)c1cc(-c2ccc(S(N)(=O)=O)cc2)c(-c2ccc(F)cc2)s1 | 0.23 | 0.01
5 | COC(=O)c1cc(-c2ccc(F)cc2)c(-c2ccc(S(N)(=O)=O)cc2)s1 | > 50 | > 30
6 | O=C(O)Cc1ccc(-c2ccsc2-c2ccc(F)cc2)cc1 | – | > 30
7 | N#Cc1ccc(-c2ccsc2-c2ccc(F)cc2)cc1 | 0.21 | > 30
8 | O=Cc1ccc(-c2ccsc2-c2ccc(F)cc2)cc1 | 0.98 | > 30
9 | OCc1ccc(-c2ccsc2-c2ccc(F)cc2)cc1 | 0.35 | > 30
10 | CC(=O)NS(=O)(=O)c1ccc(-c2ccsc2-c2ccc(F)cc2)cc1 | > 50 | 5.4
11 | CS(=O)(=O)c1ccc(-c2sccc2-c2ccc(F)cc2)cc1 | > 50 | 4.3
12 | O=C(O)c1ccc(-c2ccsc2-c2ccc(F)cc2)cc1 | > 50 | > 30
13 | NS(=O)(=O)c1ccc(-c2sccc2-c2ccc(F)cc2)cc1 | 2.7 | 0.67
14 | NC(=O)c1ccc(-c2ccsc2-c2ccc(F)cc2)cc1 | 3.2 | > 30
15 | CSc1ccc(-c2ccsc2-c2ccc(F)cc2)cc1 | 0.34 | > 30
16 | CC(=O)c1ccc(-c2ccsc2-c2ccc(F)cc2)cc1 | 0.75 | > 30
17 | C[Se](=O)(=O)c1ccc(-c2ccsc2-c2ccc(F)cc2)cc1 | 32 | 0.55
18 | C[S+]([O-])c1ccc(-c2ccsc2-c2ccc(F)cc2)cc1 (configuration not stated) | 15 | > 30
19 | CS(=O)(=O)c1ccc(-c2sc(Br)cc2-c2ccc(F)cc2)cc1 | 1.1 | 0.02
20 | NS(=O)(=O)c1ccc(-c2ccsc2-c2ccc(F)cc2)cc1 | 1.3 | 0.03
21 | CS(=O)(=O)c1ccc(-c2ccsc2-c2ccc(F)cc2)cc1 | > 100 | 0.25
22 | CC(C)(O)c1cc(-c2ccc(F)cc2)c(-c2ccc(S(N)(=O)=O)cc2)s1 | > 50 | 1.6
23 | CC(C)(O)c1cc(-c2ccc(S(N)(=O)=O)cc2)c(-c2ccc(F)cc2)s1 | 5.4 | 0.41
24 | COC(=O)c1ccc(-c2ccsc2-c2ccc(F)cc2)cc1 | 17 | > 30
